Source: patent EP4759814A1, “TRICYCLIC COMPOUND AND USE THEREOF AS MAT2A INHIBITOR” (SK Biopharmaceuticals Co., Ltd., priority 2023, dated 2025)

Assays:
[1] = tested on: HCT116 (MTAP del) cell line; assay: Cell proliferation inhibition in MTAP-deficient cancer cells, WST-1 assay; format: cell-based; conditions: Homo sapiens, HCT-116, 120 hours of drug treatment, maximum concentration 10 µM, read-out: HCT116 MTAP^-/- (IC50, cell proliferation inhibited by 50%)
Experimental: (§1) The HCT116 (MTAP del) cell line, which is a colorectal cancer cell line with deletion of MTAP gene, was treated with a compound according to an embodiment of the present application as a MAT2A inhibitor, and after culturing for 120 hours, the change in the number of cells was measured with a WST-1 assay reagent. The WST-1 assay is an assay that measures the number of cells by measuring the generation of a chromogenic substance called formazan from tetrazolium salts by intracellular mitochondrial dehydrogenase. In addition, as a control group, a wild-type colorectal cancer HCT116 (MTAP WT) cell line containing the MTAP gene was used to perform the experiment in the same manner as the experimental group.
(§2) Cell lines and reagents: HCT116 (MTAP WT (catalog number HD PAR-034), MTAP del (catalog number HD R02-033)) cell lines were purchased from Horizon Discovery (USA), and RPMI1640 medium (catalog number 22400-093), FBS (Fetal Bovine serum, catalog number 16000044), and Penicillin/Streptomycin (catalog number 15140-122) were purchased from GIBCO (USA). WST-1 (catalog number EZ-BULK150) was purchased from Dogen (Korea).
(§3) Experimental procedure: HCT116 (MTAP WT, MTAP del) cell lines were dispensed into a 96-well plate at a concentration of 1,000 cells/well in RPMI1640 culture medium containing 10% FBS and 1% Penicillin/Streptomycin, and allowed to attach for 24 hours. When the cells were attached to the plate, the drug was diluted 4-fold from a maximum concentration of 10 µM and treated on the cells. After 120 hours of drug treatment, 20 µL of WST-1 solution was treated for 2 hours, and absorbance at 450 nm was measured using SpectraMax M4 (Molecular Devices). Data analysis was calculated by taking the DMSO control group value as 100%. For the IC50 value, the concentration at which cell proliferation is inhibited by 50% was calculated through interpolation using a 4-parameter fit of the dose-response curve using the GraphPad Prism 8.4.3 program. The cancer cell proliferation inhibitory ability and selectivity in MTAP-deficient cancer cells of the compounds according to an embodiment of the present application are described in Table 3 (+++: 1 to 100 nM, ++: more than 100 to 1,000 nM, +: more than 1 to 10 µM, -: more than 10 µM).

[2] = tested on: HCT116 (MTAP WT) cell line; assay: Cell proliferation inhibition in wild-type control cells, WST-1 assay; format: cell-based; conditions: Homo sapiens, HCT-116, 120 hours of drug treatment, maximum concentration 10 µM, read-out: HCT116 WT (IC50, cell proliferation inhibited by 50%)
Experimental: as §1, §2, §3

[3] = biological target: T1, MAT2A (Homo sapiens, UniProt P31153); assay: MAT2A inhibitory activity, colorimetric phosphate detection (PiColorLock) enzyme assay; format: biochemical; conditions: Test Condition 1 or 2 (not stated which per compound); absorbance at 630 nm
T1 construct: purchased BPS Bioscience (USA) 71401
Procedure, shortened: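 Compound preincubated 30 min at room temperature with enzyme, then reacted 1 h with ATP and Met; phosphate read colorimetrically at 630 nm. Condition 1: top 50 µM, 12 ng/µL enzyme, 100 µM ATP, 80 µM Met. Condition 2: top 1 µM, 4 ng/µL enzyme, 300 µM ATP, 150 µM Met. Tris pH 8.0 buffer; IC50 by 4-parameter fit.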

T1 sequence (P31153 whole entry): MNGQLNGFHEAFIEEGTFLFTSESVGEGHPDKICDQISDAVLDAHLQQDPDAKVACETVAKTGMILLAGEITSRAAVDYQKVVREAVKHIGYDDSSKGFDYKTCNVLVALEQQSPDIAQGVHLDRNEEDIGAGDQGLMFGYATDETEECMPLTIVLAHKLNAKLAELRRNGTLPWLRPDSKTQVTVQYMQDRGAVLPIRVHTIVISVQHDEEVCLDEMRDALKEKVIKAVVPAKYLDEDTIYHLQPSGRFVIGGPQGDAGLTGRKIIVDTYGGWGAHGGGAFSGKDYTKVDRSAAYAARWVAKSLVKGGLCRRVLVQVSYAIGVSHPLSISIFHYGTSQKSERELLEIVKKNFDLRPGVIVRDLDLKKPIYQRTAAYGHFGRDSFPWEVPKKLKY

## Cc1ccccc1-n1c(=O)c2nccn2c2ccc(C(F)(F)F)nc21 [Example 49, 5-(o-tolyl)-7-(trifluoromethyl)imidazo[1,2-a]pyrido[2,3-e]pyrazin-4(5H)-one]
[1]
  IC50: 100 to 1000 nM
[2]
  IC50: > 10000 nM
[3]
  IC50: 100 to 1000 nM

## Cc1cccc(F)c1-n1c(=O)c2nccn2c2ccc(Cl)cc21 [Example 52, 7-chloro-5-(2-fluoro-6-methylphenyl)imidazo[1,2-a]quinoxalin-4(5H)-one]
[1]
  IC50: 1000 to 10000 nM
[2]
  IC50: > 10000 nM
[3]
  IC50: 100 to 1000 nM

## O=c1c2nccn2c2ccc(Cl)cc2n1-c1cccnc1Cl [Example 54, 7-chloro-5-(2-chloropyridin-3-yl)imidazo[1,2-a]quinoxalin-4(5H)-one]
[1]
  IC50: 1 to 100 nM
[2]
  IC50: 100 to 1000 nM
[3]
  IC50: 1 to 100 nM

## Cc1cn2c(n1)c(=O)n(-c1cccnc1C)c1cc(C(F)(F)F)ccc12 [Example 55, 2-methyl-5-(2-methylpyridin-3-yl)-7-(trifluoromethyl)imidazo[1,2-a]quinoxalin-4(5H)-one]
[1]
  IC50: 1 to 100 nM
[2]
  IC50: 1000 to 10000 nM
[3]
  IC50: 1 to 100 nM

## Cc1ncccc1-n1c(=O)c2nccn2c2ccc(C(F)(F)F)cc21 [Example 56, 5-(2-methylpyridin-3-yl)-7-(trifluoromethyl)imidazo[1,2-a]quinoxalin-4(5H)-one]
[1]
  IC50: 1 to 100 nM
[2]
  IC50: 1000 to 10000 nM
[3]
  IC50: 100 to 1000 nM

## Cc1ncccc1-n1c(=O)c2ncc(Br)n2c2ccc(C(F)(F)F)cc21 [Example 57, 1-bromo-5-(2-methylpyridin-3-yl)-7-(trifluoromethyl)imidazo[1,2-a]quinoxalin-4(5H)-one]
[1]
  IC50: 1 to 100 nM
[2]
  IC50: 100 to 1000 nM
[3]
  IC50: 100 to 1000 nM

## Cc1ncccc1-n1c(=O)c2ncc(C)n2c2ccc(C(F)(F)F)cc21 [Example 58, 1-methyl-5-(2-methylpyridin-3-yl)-7-(trifluoromethyl)imidazo[1,2-a]quinoxalin-4(5H)-one]
[1]
  IC50: 1 to 100 nM
[2]
  IC50: 100 to 1000 nM
[3]
  IC50: 100 to 1000 nM

## CC(=O)c1nc2c(=O)n(-c3cccnc3C)c3cc(C(F)(F)F)ccc3n2c1O [Example 60, 2-acetyl-1-hydroxy-5-(2-methylpyridin-3-yl)-7-(trifluoromethyl)imidazo[1,2-a]quinoxalin-4(5H)-one]
[1]
  IC50: > 10000 nM
[2]
  IC50: > 10000 nM
[3]
  IC50: 100 to 1000 nM

## O=c1c2nccn2c2ccc(C(F)(F)F)cc2n1-c1cccc2c1CCO2 [Example 65, 5-(2,3-dihydrobenzofuran-4-yl)-7-(trifluoromethyl)imidazo[1,2-a]quinoxalin-4(5H)-one]
[1]
  IC50: 1 to 100 nM
[2]
  IC50: 1000 to 10000 nM
[3]
  IC50: 1 to 100 nM

## Cc1ccccc1-n1c(=O)c2nccn2c2c(F)cc(Cl)cc21 [Example 71, 7-chloro-9-fluoro-5-(o-tolyl)imidazo[1,2-a]quinoxalin-4(5H)-one]
[1]
  IC50: > 10000 nM
[2]
  IC50: > 10000 nM
[3]
  IC50: 1000 to 10000 nM

## Cc1cc2c(cc1Cl)n(-c1ccccc1C)c(=O)c1nccn12 [Example 73, 7-chloro-8-methyl-5-(o-tolyl)imidazo[1,2-a]quinoxalin-4(5H)-one]
[1]
  IC50: 100 to 1000 nM
[2]
  IC50: > 10000 nM
[3]
  IC50: 100 to 1000 nM

## COc1cc2c(cc1Br)n(-c1ccccc1C)c(=O)c1nccn12 [Example 74, 7-bromo-8-methoxy-5-(o-tolyl)imidazo[1,2-a]quinoxalin-4(5H)-one]
[1]
  IC50: 100 to 1000 nM
[2]
  IC50: > 10000 nM
[3]
  IC50: 100 to 1000 nM

## COc1cc2c(cc1Br)n(-c1cccnc1C)c(=O)c1nccn12 [Example 75, 7-bromo-8-methoxy-5-(2-methylpyridin-3-yl)imidazo[1,2-a]quinoxalin-4(5H)-one]
[1]
  IC50: 100 to 1000 nM
[2]
  IC50: > 10000 nM
[3]
  IC50: 100 to 1000 nM

## Cc1ncccc1-n1c(=O)c2nccn2c2cc(F)c(Br)cc21 [Example 77, 7-bromo-8-fluoro-5-(2-methylpyridin-3-yl)imidazo[1,2-a]quinoxalin-4(5H)-one]
[1]
  IC50: 1 to 100 nM
[2]
  IC50: 1000 to 10000 nM
[3]
  IC50: 1 to 100 nM

## Cc1cc2c(cc1Br)n(-c1cccnc1C)c(=O)c1nccn12 [Example 78, 7-bromo-8-methyl-5-(2-methylpyridin-3-yl)imidazo[1,2-a]quinoxalin-4(5H)-one]
[1]
  IC50: 1 to 100 nM
[2]
  IC50: > 10000 nM
[3]
  IC50: 1 to 100 nM

## Cc1ncccc1-n1c(=O)c2nccn2c2cc(Cl)c(Br)cc21 [Example 79, 7-bromo-8-chloro-5-(2-methylpyridin-3-yl)imidazo[1,2-a]quinoxalin-4(5H)-one]
[1]
  IC50: 1 to 100 nM
[2]
  IC50: 1000 to 10000 nM
[3]
  IC50: 1 to 100 nM

## Cc1cc2c(cc1Br)n(-c1cccnc1C)c(=O)c1ncc(C)n12 [Example 84, 7-bromo-1,8-dimethyl-5-(2-methylpyridin-3-yl)imidazo[1,2-a]quinoxalin-4(5H)-one]
[1]
  IC50: 1 to 100 nM
[2]
  IC50: > 10000 nM
[3]
  IC50: 100 to 1000 nM

## Cc1ncccc1-n1c(=O)c2ncc(C)n2c2c(Br)c(C)c(Br)cc21 [Example 85, 7,9-dibromo-1,8-dimethyl-5-(2-methylpyridin-3-yl)imidazo[1,2-a]quinoxalin-4(5H)-one]
[1]
  IC50: 1 to 100 nM
[2]
  IC50: > 10000 nM
[3]
  IC50: 100 to 1000 nM

## Cc1ncccc1-n1c(=O)c2ncc(C)n2c2cc(Cl)c(Br)cc21 [Example 86, 7-bromo-8-chloro-1-methyl-5-(2-methylpyridin-3-yl)imidazo[1,2-a]quinoxalin-4(5H)-one]
[1]
  IC50: 100 to 1000 nM
[2]
  IC50: > 10000 nM
[3]
  IC50: 100 to 1000 nM

## O=c1c2nccn2c2cc(Cl)c(Br)cc2n1-c1cccnc1C1CC1 [Example 87, 7-bromo-8-chloro-5-(2-cyclopropylpyridin-3-yl)imidazo[1,2-a]quinoxalin-4(5H)-one]
[1]
  IC50: 1 to 100 nM
[2]
  IC50: > 10000 nM
[3]
  IC50: 1 to 100 nM

## Cc1ncccc1-n1c(=O)c2ncc(Br)n2c2cc(Cl)c(Br)cc21 [Example 88, 1,7-dibromo-8-chloro-5-(2-methylpyridin-3-yl)imidazo[1,2-a]quinoxalin-4(5H)-one]
[1]
  IC50: 100 to 1000 nM
[2]
  IC50: > 10000 nM
[3]
  IC50: 100 to 1000 nM

## Cc1ncccc1-n1c(=O)c2ncc(Cl)n2c2cc(Cl)c(Br)cc21 [Example 89, 7-bromo-1,8-dichloro-5-(2-methylpyridin-3-yl)imidazo[1,2-a]quinoxalin-4(5H)-one]
[1]
  IC50: 100 to 1000 nM
[2]
  IC50: > 10000 nM
[3]
  IC50: 100 to 1000 nM

## Cc1cc2c(cc1Br)n(-c1cccnc1Cl)c(=O)c1nccn12 [Example 91, 7-bromo-5-(2-chloropyridin-3-yl)-8-methylimidazo[1,2-a]quinoxalin-4(5H)-one]
[1]
  IC50: 1 to 100 nM
[2]
  IC50: > 10000 nM
[3]
  IC50: 1 to 100 nM

## Cc1ncccc1-n1c(=O)c2nc(Br)c(C)n2c2cc(Cl)c(Br)cc21 [Example 92, 2,7-dibromo-8-chloro-1-methyl-5-(2-methylpyridin-3-yl)imidazo[1,2-a]quinoxalin-4(5H)-one]
[1]
  IC50: > 10000 nM
[2]
  IC50: > 10000 nM
[3]
  IC50: 100 to 1000 nM

## Cc1cc2c(cc1C(F)(F)F)n(-c1cccnc1C)c(=O)c1nccn12 [Example 93, 8-methyl-5-(2-methylpyridin-3-yl)-7-(trifluoromethyl)imidazo[1,2-a]quinoxalin4(5H)-one]
[1]
  IC50: 1 to 100 nM
[2]
  IC50: > 10000 nM
[3]
  IC50: 1 to 100 nM

## Cc1ncccc1-n1c(=O)c2nccn2c2cc(Cl)c(C(F)(F)F)cc21 [Example 96, 8-chloro-5-(2-methylpyridin-3-yl)-7-(trifluoromethyl)imidazo[1,2-a]quinoxalin4(5H)-one]
[1]
  IC50: 1 to 100 nM
[2]
  IC50: > 10000 nM
[3]
  IC50: 1 to 100 nM

## Cc1ncccc1-n1c(=O)c2ncc(C)n2c2cc(Cl)c(C(F)(F)F)cc21 [Example 99, 8-chloro-1-methyl-5-(2-methylpyridin-3-yl)-7-(trifluoromethyl)imidazo[1,2-a]quinoxalin-4(5H)-one]
[1]
  IC50: 1 to 100 nM
[2]
  IC50: > 10000 nM
[3]
  IC50: 1 to 100 nM

## Cc1ncccc1-n1c(=O)c2nc(N(C)C)c(C)n2c2cc(Cl)c(C(F)(F)F)cc21 [Example 100, 8-chloro-2-(dimethylamino)-1-methyl-5-(2-methylpyridin-3-yl)-7-(trifluoromethyl)imidazo[1,2-a]quinoxalin-4(5H)-one]
[1]
  IC50: 100 to 1000 nM
[2]
  IC50: > 10000 nM
[3]
  IC50: 100 to 1000 nM
